Measurements from patent US12410160B2 (Gilead Sciences, Inc., priority 2021, dated 2025).

Experiments:
human KHK-A = human KHK-A (Homo sapiens (Human), UniProt P50053); assay: KHK Biochemical Assay (IC50), ADP-Glo, KHK-A; settings: average of at least two separate assays
How it was run: (§1)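 ADP-Glo luminescence measured ADP made over a 4 h room-temperature reaction of ATP plus fructose, started after 30 min compound–enzyme pre-incubation. Buffer: 50 mM Hepes pH 7.4, 140 mM KCl, 5 mM MgCl2, 0.01% Triton-X. Enzyme was His-tagged, BL21 (DE3)-expressed, Ni-NTA-purified; compounds in 1:3 DMSO dilution series.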

human KHK-C = human KHK-C (Homo sapiens (Human), UniProt P50053); assay: KHK Biochemical Assay (IC50), ADP-Glo, KHK-C; settings: average of at least two separate assays
Chain of human KHK-C (P50053 whole entry): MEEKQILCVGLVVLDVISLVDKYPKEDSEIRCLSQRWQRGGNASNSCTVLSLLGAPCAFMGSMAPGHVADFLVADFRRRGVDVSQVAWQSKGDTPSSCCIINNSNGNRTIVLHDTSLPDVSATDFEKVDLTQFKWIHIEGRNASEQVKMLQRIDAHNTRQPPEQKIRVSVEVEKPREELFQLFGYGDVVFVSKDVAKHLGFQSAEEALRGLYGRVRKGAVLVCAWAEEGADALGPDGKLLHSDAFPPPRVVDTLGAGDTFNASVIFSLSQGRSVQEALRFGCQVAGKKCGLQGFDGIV
How it was run: as §1

[1] = biological target: KHK-C expressed in NRK-52E cells (Homo sapiens (Human), UniProt P50053); assay: KHK-C Cell-based Assay (EC50), NRK CTG, fructose-mediated ATP-depletion
Chain of KHK-C expressed in NRK-52E cells (P50053 whole entry): as above

Chain of human KHK-A (P50053 other isoform, or with tags, fused parts or gaps): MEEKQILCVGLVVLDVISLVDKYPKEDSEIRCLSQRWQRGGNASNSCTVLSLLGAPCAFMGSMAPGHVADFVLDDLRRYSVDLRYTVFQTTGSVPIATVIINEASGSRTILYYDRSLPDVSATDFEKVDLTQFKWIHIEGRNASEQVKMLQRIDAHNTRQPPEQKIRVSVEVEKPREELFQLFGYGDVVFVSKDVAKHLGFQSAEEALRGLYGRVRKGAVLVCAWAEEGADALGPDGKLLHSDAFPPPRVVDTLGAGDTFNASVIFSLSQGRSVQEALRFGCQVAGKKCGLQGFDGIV

Row | SMILES | IC50 (human KHK-A; ADP-Glo) | IC50 (human KHK-C; ADP-Glo) | EC50 [1] | IC50 (human KHK-A) | IC50 (human KHK-C)
1 | C[C@H]1CCN1c1nc2c(c(-c3cccc(CNS(C)(=O)=O)c3)n1)CCC2 [Example 277, (S)—N-(3-(2-(2-methylazetidin-1-yl)-6,7-dihydro-5H-cyclopenta[d]pyrimidin-4-yl)benzyl)methanesulfonamide] | 11.9 nM | 15.3 nM | 26.7 nM | – | –
2 | C[C@H]1CCN1c1nc2c(c(-c3ccc(-c4ncc[nH]4)cc3)n1)CCC2 [Example 185, 4-[4-(1H-imidazol-2-yl)phenyl]-2-[(2S)-2-methylazetidin-1-yl]-6,7-dihydro-5H-cyclopenta[d]pyrimidine] | 60.6 nM | 48.8 nM | 83.9 nM | – | –
3 | C[C@H]1CCN1c1nc2c(c(-c3cscn3)n1)CCC2 [Example 36, (S)-4-(2-(2-methylazetidin-1-yl)-6,7-dihydro-5H-cyclopenta[d]pyrimidin-4-yl)thiazole] | 147 nM | 146 nM | 434 nM | – | –
4 | C[C@H]1[C@H](F)CN1c1nc2c(c(-c3ccc(C(N)=O)cc3)n1)CCC2 [Example 200, 4-[2-[(2S,3R)-3-fluoro-2-methyl-azetidin-1-yl]-6,7-dihydro-5H-cyclopenta[d]pyrimidin-4-yl]benzamide] | 14.9 nM | 10.9 nM | 49.3 nM | – | –
5 | C[C@H]1[C@H](O)CN1c1nc2c(c(-c3ccc(-c4ncc[nH]4)cc3)n1)CCC2 [Example 193, (2S,3R)-1-[4-[4-(1H-imidazol-2-yl)phenyl]-6,7-dihydro-5H-cyclopenta[d]pyrimidin-2-yl]-2-methyl-azetidin-3-ol] | 73.4 nM | 97.8 nM | 412 nM | – | –
6 | C[C@H]1[C@@H](F)CN1c1nc2c(c(-c3ccc(C(N)=O)cc3)n1)CCC2 [Example 226] | 25.5 nM | 17.2 nM | 26.9 nM | – | –
7 | CC(=O)N1C[C@H](C(N)=O)[C@@H](c2cccc(-c3nc(N4CC[C@@H]4C)nc4c3CCC4)c2)C1 (relative stereo) [Example 146, (3R*,4S*)-1-acetyl-4-(3-(2-((S)-2-methylazetidin-1-yl)-6,7-dihydro-5H-cyclopenta[d]pyrimidin-4-yl)phenyl)pyrrolidine-3-carboxamide] | 118 nM | 116 nM | 423 nM | – | –
8 | C[C@H]1[C@H](O)CN1c1nc(-c2ccc3c(c2)OC[C@@]32CN(C)C(=O)N2)c2c(n1)C(F)(F)CC2 (single isomer, unassigned) [Example 702] | – | – | 3.9 nM | 11.7 nM | 0.2 nM
9 | C[C@H]1CCN1c1nc2c(c(-c3cccc(CCC(N)=O)c3)n1)CCC2 [Example 29] | 55.3 nM | 33 nM | 120 nM | – | –
10 | C[C@H]1CCN1c1nc(-c2cccc(C(N)=O)c2)c2c(n1)[C@@H]1CC[C@H]2C1 [Example 63, 3-((5S,8R)-2-((S)-2-methylazetidin-1-yl)-5,6,7,8-tetrahydro-5,8-methanoquinazolin-4-yl)benzamide] | 112 nM | 95.3 nM | 138 nM | – | –
11 | C[C@H]1CCN1c1nc2c(c(-c3cccc(CNC(=O)CCO)c3)n1)CCC2 [Example 227, 3-hydroxy-N-[[3-[2-[(2S)-2-methylazetidin-1-yl]-6,7-dihydro-5H-cyclopenta[d]pyrimidin-4-yl]phenyl]methyl]propanamide] | 75.6 nM | 70.3 nM | 265 nM | – | –
12 | C[C@H]1CCN1c1nc2c(c(-c3ccc(CN4CC(O)C4)cc3)n1)CCC2 [Example 365, 1-[[4-[2-[(2S)-2-methylazetidin-1-yl]-6,7-dihydro-5H-cyclopenta[d]pyrimidin-4-yl]phenyl]methyl]azetidin-3-ol] | 27.2 nM | 19 nM | 29.3 nM | – | –
13 | C[C@H]1CCN1c1nc2c(c(-c3ccc(CC(N)=O)cc3)n1)CCC2 [Example 245, 2-[4-[2-[(2S)-2-methylazetidin-1-yl]-6,7-dihydro-5H-cyclopenta[d]pyrimidin-4-yl]phenyl]acetamide] | 73.6 nM | 80.3 nM | 374 nM | – | –
14 | C[C@H]1CCN1c1nc2c(c(-c3ccc4c(c3)[C@]3(C[C@H]3C#N)C(=O)N4)n1)CCC2 (mixture of isomers) [Example 410, rac-(1R,2R)-5′-(2-((S)-2-methylazetidin-1-yl)-6,7-dihydro-5H-cyclopenta[d]pyrimidin-4-yl)-2′-oxospiro[cyclopropane-1,3′-indoline]-2-carbonitrile] | – | – | 47.5 nM | 37.6 nM | 40.8 nM
15 | NC(=O)c1ccc(-c2nc(N3CCCC3)nc3c2CCC3)cc1 [Example 142, 4-(2-(pyrrolidin-1-yl)-6,7-dihydro-5H-cyclopenta[d]pyrimidin-4-yl)benzamide] | 2110 nM | 2430 nM | 2040 nM | – | –
16 | NC(=O)c1ccc(-c2nc(N3CCC34CCC4)nc3c2CCC3)cc1 [Example 430, 4-[2-(1-azaspiro[3.3]heptan-1-yl)-6,7-dihydro-5H-cyclopenta[d]pyrimidin-4-yl]benzamide] | – | – | 3220 nM | 3160 nM | 2120 nM
17 | C[C@H]1CCN1c1nc2c(c(-c3ccc4c(c3)C[C@@H]3[C@H](C(N)=O)[C@H]43)n1)CCC2 (relative stereo) [Example 138, (1S,1aR*,6aS*)-4-(2-((S)-2-methylazetidin-1-yl)-6,7-dihydro-5H-cyclopenta[d]pyrimidin-4-yl)-1,1a,6,6a-tetrahydrocyclopropa[a]indene-1-carboxamide] | 294 nM | 220 nM | 1800 nM | – | –
18 | CNCc1cccc(-c2nc(N3CC[C@@H]3C)nc3c2CCC3)c1 [Example 330, N-methyl-1-[3-[2-[(2S)-2-methylazetidin-1-yl]-6,7-dihydro-5H-cyclopenta[d]pyrimidin-4-yl]phenyl]methanamine] | 22.4 nM | 19.2 nM | 13.1 nM | – | –
19 | C[C@H]1CCN1c1nc2c(c(-c3cccc(CN4CCCCC4)c3)n1)CCC2 [Example 345, 2-[(2S)-2-methylazetidin-1-yl]-4-[3-(1-piperidylmethyl)phenyl]-6,7-dihydro-5H-cyclopenta[d]pyrimidine] | 12.6 nM | 45.1 nM | 53.7 nM | – | –
20 | C[C@H]1[C@H](O)CN1c1nc2c(c(-c3ccc(C(N)=O)c(F)c3)n1)CCC2 [Example 307] | 86.5 nM | 69.9 nM | 166 nM | – | –
21 | C[C@H]1[C@H](O)CN1c1nc(-c2ccc3c(c2)COC[C@@]32CCC(=O)N2)c2c(n1)C(F)(F)CC2 (single isomer, unassigned) [Example 640] | – | – | 280 nM | 38.8 nM | 29.2 nM
22 | C[C@H]1CCN1c1nc2c(c(-c3ccc4nc(O)ccc4c3)n1)CCC2 [Example 175, (S)-6-(2-(2-methylazetidin-1-yl)-6,7-dihydro-5H-cyclopenta[d]pyrimidin-4-yl)quinolin-2-ol] | 66.5 nM | 49.8 nM | 249 nM | – | –
23 | C[C@H]1CCN1c1nc(-c2ccccc2)c2c(ncn2C)n1 [Example 211, 7-methyl-2-[(2S)-2-methylazetidin-1-yl]-6-phenyl-purine] | 7310 nM | 4760 nM | > 50000 nM | – | –
24 | C[C@H]1CCN1c1nc2c(c(-c3ccc4c(c3)[C@]3(C[C@@H]3C(N)=O)C(=O)N4)n1)CCC2 (mixture of isomers) [Example 413, rac-(1R,2S)-5′-(2-((S)-2-methylazetidin-1-yl)-6,7-dihydro-5H-cyclopenta[d]pyrimidin-4-yl)-2′-oxospiro[cyclopropane-1,3′-indoline]-2-carboxamide] | – | – | 750 nM | 65.4 nM | 74.4 nM
25 | C[C@H]1CCN1c1nc2c(c(-c3cnc4c(c3)NCCO4)n1)CCC2 [Example 263, 7-[2-[(2S)-2-methylazetidin-1-yl]-6,7-dihydro-5H-cyclopenta[d]pyrimidin-4-yl]-2,3-dihydro-1H-pyrido[2,3-b][1,4]oxazine] | 96.2 nM | 50 nM | 155 nM | – | –
26 | C[C@H]1CCN1c1nc2c(c(-c3ccc(S(N)(=O)=O)cc3)n1)CCC2 [Example 189, 4-[2-[(2S)-2-methylazetidin-1-yl]-6,7-dihydro-5H-cyclopenta[d]pyrimidin-4-yl]benzenesulfonamide] | 81.6 nM | 61.7 nM | 112 nM | – | –
27 | C[C@H]1CCN1c1nc2c(c(-c3ccc4[nH]c(=O)[nH]c(=O)c4c3)n1)CCC2 [Example 425, 6-[2-[(2S)-2-methylazetidin-1-yl]-6,7-dihydro-5H-cyclopenta[d]pyrimidin-4-yl]-1H-quinazoline-2,4-dione] | – | – | 122 nM | 21.7 nM | 31.4 nM
28 | Cc1nc2cc(-c3nc(N4CC[C@@H]4C)nc4c3CCC4)ccc2c(=O)[nH]1 [Example 387, 2-methyl-7-[2-[(2S)-2-methylazetidin-1-yl]-6,7-dihydro-5H-cyclopenta[d]pyrimidin-4-yl]-3H-quinazolin-4-one] | 5.6 nM | 9.9 nM | 19.6 nM | – | –
29 | C[C@H]1CCN1c1nc2c(c(-c3cc4cccc(C(N)=O)c4[nH]3)n1)CCC2 [Example 154, (S)-2-(2-(2-methylazetidin-1-yl)-6,7-dihydro-5H-cyclopenta[d]pyrimidin-4-yl)-1H-indole-7-carboxamide] | 45.8 nM | 90.4 nM | 34 nM | – | –
30 | C[C@H]1CCN1c1nc2c(c(-c3ccc(-c4nnn[nH]4)cc3)n1)CCC2 [Example 104, (S)-4-(4-(1H-tetrazol-5-yl)phenyl)-2-(2-methylazetidin-1-yl)-6,7-dihydro-5H-cyclopenta[d]pyrimidine] | 119 nM | 46.2 nM | > 5000 nM | – | –
